Patent EP0355039A2, “Methods and means for controlling the stability of proteins” (priority 1988, dated 1990)

How the values were obtained:
Assay type in all cases: biochemical
[1] = target: T1, Actinoplanes missouriensis (DSM 43046) D-glucose isomerase (D-xylose isomerase, EC 5.3.1.5) EcoAmi(DSM) GI, wild type (WT-GI) (Actinoplanes missouriensis, UniProt P12851); test: Glucose isomerase catalytic parameters (D-sorbitol dehydrogenase coupled assay for D-xylose; cysteine-carbazole method for D-glucose)
T1 construct: made in house; host or cells: E. coli K514
T1 sequence (P12851 whole entry): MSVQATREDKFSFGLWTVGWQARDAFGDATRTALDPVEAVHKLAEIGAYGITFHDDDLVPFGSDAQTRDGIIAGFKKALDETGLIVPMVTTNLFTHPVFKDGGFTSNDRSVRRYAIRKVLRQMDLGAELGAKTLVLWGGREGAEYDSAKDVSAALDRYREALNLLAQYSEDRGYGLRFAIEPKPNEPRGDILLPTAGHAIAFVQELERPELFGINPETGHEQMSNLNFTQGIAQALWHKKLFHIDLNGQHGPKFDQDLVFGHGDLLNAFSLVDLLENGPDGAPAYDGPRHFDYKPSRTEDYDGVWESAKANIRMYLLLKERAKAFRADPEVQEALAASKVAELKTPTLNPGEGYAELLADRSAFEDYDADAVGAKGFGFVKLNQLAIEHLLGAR
Experimental: (§1) The enzymatic activity of glucose isomerase was assayed as described below (1 unit of enzymatic activity produces 1.0 micromole of product -D-xylulose or D-fructose- per minute; therefore, specific activity -spa- is expressed as units per mg of GI enzyme).
(§2) In the D-Sorbitol Dehydrogenase Coupled Assay, enzymatic determination of D-xylulose was performed at 35°C as previously described (Kersters-Hilderson et al., 1987) in 50mM triethanolamine, pH 7.5, 10mM MgSO₄, and 0.1 M xylose, in the presence of ∼ 2 x 10⁻⁸ M D-sorbitol dehydrogenase (L-iditol : NAD oxidoreductase, EC 1.1.1.14), and 0.15mM NADH, except that the incubation buffer also included 1mM ethylenebis(oxyethylenenitrilo)tetraacetic acid (EGTA). Glucose isomerase final concentration in this assay was about 2.5 x 10⁻³ mg/ml, and precisely determined as described above.
(§3) With glucose as a substrate, GI activity can be assayed by measuring the amount of D-fructose produced during the isomerization reaction using the cysteine-carbazole method which is based on the reaction of ketosugars with carbazole in acids to yield a purple product (Dische and Borenfreund, 1951).

[2] = target: T2, Actinoplanes missouriensis (DSM 43046) D-glucose isomerase EcoAmi(DSM) GI mutant K253R (Lys-253 to Arg) (Actinoplanes missouriensis, UniProt P12851, K253R)
T2 construct: made in house; host or cells: E. coli K514
T2 sequence (P12851 whole entry K253R): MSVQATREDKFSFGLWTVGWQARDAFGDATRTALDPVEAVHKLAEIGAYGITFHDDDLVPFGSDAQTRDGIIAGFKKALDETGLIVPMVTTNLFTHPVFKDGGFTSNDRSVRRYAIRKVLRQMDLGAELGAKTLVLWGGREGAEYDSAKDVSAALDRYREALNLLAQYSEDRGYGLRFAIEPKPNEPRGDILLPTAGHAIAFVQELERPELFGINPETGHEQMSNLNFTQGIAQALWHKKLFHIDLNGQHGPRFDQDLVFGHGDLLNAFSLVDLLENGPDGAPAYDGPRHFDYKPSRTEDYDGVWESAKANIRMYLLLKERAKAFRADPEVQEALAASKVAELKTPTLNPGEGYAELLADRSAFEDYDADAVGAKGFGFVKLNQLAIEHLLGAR
Experimental: as §1, §2, §3

[3] = target: T3, Actinoplanes missouriensis (DSM 43046) D-glucose isomerase EcoAmi(DSM) GI mutant K253Q (Lys-253 to Gln) (Actinoplanes missouriensis, UniProt P12851, K253Q)
T3 construct: made in house; host or cells: E. coli K514
T3 sequence (P12851 whole entry K253Q): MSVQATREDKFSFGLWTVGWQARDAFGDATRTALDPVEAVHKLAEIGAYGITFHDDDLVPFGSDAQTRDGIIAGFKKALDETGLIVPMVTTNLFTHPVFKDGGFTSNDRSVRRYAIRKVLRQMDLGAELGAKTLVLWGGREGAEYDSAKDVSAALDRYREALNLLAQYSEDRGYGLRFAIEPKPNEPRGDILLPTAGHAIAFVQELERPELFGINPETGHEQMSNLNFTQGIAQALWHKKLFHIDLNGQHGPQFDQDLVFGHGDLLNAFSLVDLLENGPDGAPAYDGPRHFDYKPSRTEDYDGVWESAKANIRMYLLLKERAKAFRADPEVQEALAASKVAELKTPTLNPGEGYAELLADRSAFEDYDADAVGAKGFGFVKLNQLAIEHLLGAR
Experimental: as §1, §2, §3

[4] = D-xylose as substrate, coupled assay, 35°C, 50mM triethanolamine pH 7.5, 10mM MgSO4

Row | Substance | Vmax (Glucose) ([1]; D-glucose as substrate) | Vmax (Glucose) ([2]; D-glucose as substrate) | Vmax (Glucose) ([3]; D-glucose as substrate) | Km [1, 4] [mM] | Vmax (Xylose) [1, 4] | Km [2, 4] [mM] | Vmax (Xylose) [2, 4] | Km [3, 4] [mM] | Vmax (Xylose) [3, 4]
1 | D-glucose | 30.6 units per mg of enzyme | 27.2 units per mg of enzyme | 29.0 units per mg of enzyme | – | – | – | – | – | –
2 | D-xylose | – | – | – | 4.8 | 24.2 units per mg of enzyme | 5.3 | 24.6 units per mg of enzyme | 4.4 | 15.1 units per mg of enzyme
